This is an account of results in US11926596B2, “Inhibitors of Rho associated coiled-coil containing protein kinase” (KADMON CORPORATION, LLC, priority 2017, dated 2024).

Read-outs that look alike come from different tables or passages of the source.

The target of data set [1] is T1, recombinant ROCK1 (amino acids 1-535) (Homo sapiens, UniProt Q13464).
T1 construct: recombinant ROCK1 (amino acids 1-535) and ROCK2; purchased ThermoFisher Scientific
The data set can be described thus: Z'-lyte kinase assay, ROCK1. The data set is classed as biochemical.

Data set [2] has as its system luciferase reporter driven by the human ACTA2 gene promoter in NIH3T3 cells. The data set can be described thus: NIH3T3 cells Acta2-promoter driven-luciferase assay. It counts as cell-based. The note with it: plus TGF 1, 24 hr, read-out: NIH3T3, Acta2-luc, IC50. Here is the method:
NIH3T3 cells Acta2-promoter driven-luciferase assay: A NIH3T3 cell line stably expressing a luciferase reporter driven by the human ACTA2 gene promoter (−1000-1 bp) was established (NIH3T3-Acta2-luciferase). The cells were plated to confluence and treated with the test compounds plus TGF 1 for 24 hr. Cells were then lysed and luciferase activity was measured using the LightSwitch luciferase kit from Active Motif.

Data set [3] relates to phospho-myosin light chains (ppMlc, Thr18/Ser19) in A7R5 cells. Put plainly: A7R5 in-cell ELISA, phospho-myosin light chain. It counts as cell-based, rat. The note with it: Rattus norvegicus.
The target in data set [4] is T2, recombinant ROCK2 (amino acids 1-552) (Homo sapiens, UniProt O75116).
T2 construct: ROCK2 (amino acids 1-552) proteins were purchased from ThermoFisher Scientific; purchased ThermoFisher Scientific
T2 sequence (O75116 1-552): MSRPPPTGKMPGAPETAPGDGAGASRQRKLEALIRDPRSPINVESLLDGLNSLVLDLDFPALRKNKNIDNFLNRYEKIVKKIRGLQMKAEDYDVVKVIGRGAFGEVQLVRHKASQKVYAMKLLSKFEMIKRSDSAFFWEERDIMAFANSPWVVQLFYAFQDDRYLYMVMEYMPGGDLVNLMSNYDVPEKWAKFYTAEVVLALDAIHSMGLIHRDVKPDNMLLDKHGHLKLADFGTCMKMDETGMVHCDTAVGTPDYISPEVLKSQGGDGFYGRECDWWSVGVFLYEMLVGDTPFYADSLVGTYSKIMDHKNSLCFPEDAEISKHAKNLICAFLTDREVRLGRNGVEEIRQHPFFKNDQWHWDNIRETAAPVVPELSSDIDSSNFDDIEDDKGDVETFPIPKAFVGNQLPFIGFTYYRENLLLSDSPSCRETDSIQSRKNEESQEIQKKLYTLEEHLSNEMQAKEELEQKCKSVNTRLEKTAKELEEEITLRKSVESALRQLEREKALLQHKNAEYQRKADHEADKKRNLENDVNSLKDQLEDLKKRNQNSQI
Put plainly: Z'-lyte kinase assay, ROCK2. The data set is classed as biochemical.

Data set [5] can be described thus: Brain and plasma concentrations in mouse by HPLC/MS/MS after 2.5 mg/kg IV. The data set is classed as in vivo. The note with it: for concentration at 0.25 h / concentration at 2 h: iv; for Kp at 0.25 h / Kp at 2 h: brain/plasma; for Kp at 0.25 h: read-out: Mean Brain/Plasma Ratio at 0.25 hr; for Kp at 2 h: read-out: Mean Brain/Plasma Ratio at 2 hr. Here is the method:
Brain and plasma concentrations of select ROCK inhibitors were also evaluated in mouse by HPLC/MS/MS at 15 min and 2 hrs following 2.5 mg/kg IV drug administration.

The conditions of data set [6]: cited from earlier work.
The subject of another data set is sAPPP. The note with it: direct i.p. injection into hippocampus, rodent model of AD; cited from earlier work.
Data set [7] relates to rat oligodendrocytes with rat dorsal root ganglia (DRG) explants. Put plainly: Rat oligodendrocytes with rat dorsal root ganglia (DRG) explants co-culture. It counts as cell-based. The source says: At the same time, the ROCK inhibitor also facilitated axonal support of oligodentrocye by organized manner, which was visualized by staining the mature oligodendrocyte marker MBP.

In data set [8] the test system is ROCK target MYPT1 phosphorylation in HCT116 ROCK1KO and ROCK2KO cells. Put plainly: pMypt (T853) western blotting in HCT116 ROCK1KO and ROCK2KO cells. The data set is classed as cell-based. The note with it: 110 nM, 90 min. On the procedure: FIG. 2. […] HCT116 cells with either a ROCK1 or ROCK2 knockout (ROCK1KO and ROCK2KO, respectively) were treated with the inhibitor for 90 min and pMypt (T853) levels were visualized by western blotting.
A CRISPR/CAS9 system was used to create HCT116 cells containing a knock out for either ROCK1 or ROCK2. The ROCK1KO and ROCK2KO cells were treated with the Example 2 compound for 90 min and pMypt (T853) levels were visualized by western blotting.

Data set [9] is described as follows: Mouse pharmacokinetic study, plasma and brain distribution 2 hours after dosing. The data set is classed as in vivo. The note with it: for concentration at 2 h / Kp at 2 h: 2 hours post-dose; for Kp at 2 h: brain/plasma, read-out: Brain/Plasma Ratio. On the procedure: In a mouse pharmacokinetic study, 2 hours after dosing, animal tissues were harvested to determine the compound distribution.

The test system of data set [10] is Human oligodendrocyte/neuron progenitor cells. Put plainly: Human oligodendrocyte/neuron progenitor cell differentiation (Nestin/MAP2 staining). It counts as cell-based. The note with it: cultured 2 & 14 days with or without inhibitor. On the procedure:
FIG. 3. Human oligodendrocyte/neuron progenitor cells were cultured in vitro with or without ROCK inhibitor (Example 2 compound) for 2 & 14 days. Nestin and MAP2 proteins were visualized by staining with commercial antibodies to identify different stages of neuronal cell differentiation.
Human oligodendrocyte/neuron progenitor cells were cultured in vitro with or without ROCK inhibitor for 2 & 14 days. Nestin and MAP2 proteins were visualized by staining with commercial antibodies to identify different stages of neuronal cell differentiation.

The mark [11] stands for this setting: 1.5 h, A7R5 cells, 90 min, read-out: pMLC IC50 A7R5.
[12] abbreviates: A7R5 cells, ppMlc (T18/S19), 9 points 2 fold serial dilution, read-out: ppMIc IC50.
[13] abbreviates: brain, 2.5 mg/kg, read-out: Mean Conc. at 0.25 hr, Brain.
Where [14] appears, read: plasma, 2.5 mg/kg, read-out: Mean Conc. at 0.25 hr, Plasma.
Setting [15] is: plasma, 2.5 mg/kg, read-out: Mean Conc. at 2 hr, Plasma.

T1 sequence (Q13464 1-535): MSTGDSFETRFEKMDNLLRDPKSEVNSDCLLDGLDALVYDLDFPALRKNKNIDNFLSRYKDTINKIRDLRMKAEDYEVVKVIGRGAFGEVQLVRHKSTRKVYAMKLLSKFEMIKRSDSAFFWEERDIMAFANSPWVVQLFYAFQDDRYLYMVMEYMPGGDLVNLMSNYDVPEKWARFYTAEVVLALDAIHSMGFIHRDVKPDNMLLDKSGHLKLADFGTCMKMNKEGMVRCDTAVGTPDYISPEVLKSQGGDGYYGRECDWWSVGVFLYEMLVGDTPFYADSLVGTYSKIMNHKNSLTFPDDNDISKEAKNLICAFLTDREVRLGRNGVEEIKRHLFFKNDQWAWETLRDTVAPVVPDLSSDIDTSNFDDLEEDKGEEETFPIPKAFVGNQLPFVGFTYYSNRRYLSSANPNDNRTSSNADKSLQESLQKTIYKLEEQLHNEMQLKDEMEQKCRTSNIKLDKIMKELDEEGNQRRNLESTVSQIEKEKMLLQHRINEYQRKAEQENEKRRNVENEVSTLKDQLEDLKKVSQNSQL

As to `CNC(C(=O)Nc1ccc2[nH]ncc2c1)c1ccc(Oc2cccc(OC)c2)cc1` (stereo not shown) [Example 15, N-(1H-indazol-5-yl)-2-(4-(3-methoxyphenoxy)phenyl)-2-(methylamino)acetamide], the IC50 in data set [1] turned out to be 13 nM; in data set [2], 219 nM; in data set [3] (setting [11]), 124 nM; in data set [3] (setting [12]) it was 124 nM; in data set [4], 10 nM. Further, the concentration at 0.25 h stood at 853 ng/g in data set [5] (setting [13]) and 394 ng/mL in data set [5] (setting [14]). In addition, the concentration at 2 h worked out at 288 ng/g in [5] (brain, 2.5 mg/kg, read-out: Mean Conc. at 2 hr, Brain) and 41.4 ng/mL in data set [5] (setting [15]). The Kp at 0.25 h in [5] amounted to 2.17. Further, the Kp at 2 h in [5] is 6.99.
Turning to `CNC(C(=O)Nc1ccc2[nH]ncc2c1)c1cccc(OC)c1` (stereo not shown) [Example 41, N-(1H-indazol-5-yl)-2-(3-methoxyphenyl)-2-(methylamino)acetamide], the IC50 stood at 3.2 nM in data set [1], 539 nM in data set [2], 304 nM in data set [3] (setting [11]) and 17 nM in data set [4]. Besides, the inhibition at 1 µM in data set [4] (@ 1 μM, read-out: ROCK2 % inh) stood at 99.5%. Besides, the “Mean Conc. at 0.25 hr, Brain” value in data set [5] (2.5 mg/kg) came to 541 ng/g. The values for the concentration at 0.25 h in data set [5] (setting [13]) and in data set [5] (setting [14]) were 566 ng/g and 427 ng/mL, respectively. Also, the Kp at 0.25 h in data set [5] is 1.33. Further, the Kp at 2 h in [5] was determined as 8.41. Further, the concentration at 2 h in [5] (setting [15]) turned out to be 2.14 ng/mL.
As for `CN(C)CCOc1cc(-c2cn[nH]c2)ccc1NC(=O)C1COc2ccccc2O1` (stereo not shown) [SR3677], the brain penetration entry in data set [6] (in vivo) is “lack of brain penetration”. For the same molecule, the half-life in [6] (oral PK properties) was less than 1 h. Moreover, the “F (oral)” value in [6] (oral) is recorded as 5%. Further, the “effect on sAPPP” value with sAPPP was “lowering sAPPP”.
In the case of `CNC(C(=O)Nc1ccc2[nH]ncc2c1)c1ccccc1` (stereo not shown) [Example 2, N-(1H-indazol-5-yl)-2-(methylamino)-2-phenylacetamide], in [7], the “axonal support of oligodendrocyte (MBP / neurofilament staining)” value is given as “facilitated”. Moreover, the “cytoskeletal organization / myelin segments (neurofilament staining)” value in [7] is recorded as “producing many shorter ordered myelin segments”. Further, the IC50 in [1] is 25 nM; in data set [2], 885 nM; in [3] (setting [11]), 304 nM; in data set [3] (setting [12]), 304 nM; in [3] (pMLC in A7R5 cells, read-out: cellular ROCK inhibition IC50), 252 nM; in data set [4], 21 nM. The inhibition at 3 µM in data set [1] (3 μM, read-out: ROCK1 % inh) turned out to be 98.8%; in data set [4] (3 μM, read-out: ROCK2 % inh), 98.7%. In [8], the “pMypt (T853) levels, MYPT1 phosphorylation” value is given as “efficiently blocked”. In addition, in data set [9] (2 hours after dosing), the BBB penetrant property entry is given as “excellent”. Besides, the concentration at 2 h is 699 ng/g in data set [9] (brain, IV 10 mg base/kg, read-out: Brain Concentration); 700 ng/g in data set [9] (brain, PO 10 mg base/kg, read-out: Brain Concentration); 2860 ng/g in data set [9] (brain, PO 30 mg base/kg, read-out: Brain Concentration); 19400 ng/g in data set [9] (brain, PO 100 mg base/kg, read-out: Brain Concentration); 211 ng/mL in [9] (plasma, IV 10 mg base/kg, read-out: Plasma Concentration); 405 ng/mL in data set [9] (plasma, PO 10 mg base/kg, read-out: Plasma Concentration). For the same molecule, the concentration at 2 h in [9] (plasma, PO 30 mg base/kg, read-out: Plasma Concentration) turned out to be 1400 ng/mL; in [9] (plasma, PO 100 mg base/kg, read-out: Plasma Concentration), 9290 ng/mL. Further, the Kp at 2 h in data set [9] (IV 10 mg base/kg) stood at 3.31; in [9] (PO 10 mg base/kg), 1.73; in data set [9] (PO 30 mg base/kg), 2.04; in data set [9] (PO 100 mg base/kg), 2.08. Further, the “mature neuronal cell marker MAP2 expression” value in [10] is reported as “significantly facilitated”. Also, the neurite outgrowth result in data set [10] is on record as “improved”.
